The text below walks through data of patent US20100311790A1 (priority 2007, published 2010).

In one experiment the test system is Sclerotinia sclerotiorum. The experiment in a line: Test Examples 2 and 3: preventive effect on Sclerotinia rot disease of cucumber, foliar spray. Type of experiment: in vivo. As to conditions: cucumber (Sagami Hanjiro), flowable formulation diluted to 200 ppm, foliar spray before inoculation, 18° C. for 4 days under high humidity. As to the method: (§1) The area of lesions on the test plants at testing was visually observed, and the control effect was evaluated by comparing the area of lesions on test plants treated with the invented compound with the area of lesions on untreated plants.
Test for Showing Preventive Effect on Sclerotinia Rot Disease of Cucumber (Sclerotinia sclerotiorum)
Sand soil was packed in a plastic pot, and seeds of cucumber (variety: Sagami Hanjiro) were sowed therein and grown for 12 days in a greenhouse. […] After spraying, the plant was air-dried and PDA medium containing hyphae of Sclerotinia sclerotiorum was placed on the surface of leaves of the cucumber. After the inoculation, the plant was left at 18° C. for 4 days under high humidity, area of lesions was examined. As a result, the lesion area on the plant treated with the invented compounds (1), (3)-(27) and (28) was less than 10% of the lesion area on the untreated plant.
Sand soil was packed in a plastic pot, and seeds of cucumber (variety: Sagami Hanjiro) were sowed therein and grown for 12 days in a greenhouse. The invented compound (2) was formulated into flowable formulation in accordance with Formulation Example 6, and it was diluted with water to a given concentration (200 ppm) and was sprayed onto the foliage of the cucumber so that a sufficient amount of the compound would be applied to the surface of leaves of the cucumber. […]

The test system of the next experiment is Botrytis cinerea. The experiment in a line: Test Example 1: preventive effect on Botrytis disease of cucumber, foliar spray. Type of experiment: in vivo. Conditions: cucumber (Sagami Hanjiro), flowable formulation diluted to 13 ppm, foliar spray before inoculation, 12° C. for 5 days under high humidity. The method, then:
as §1
Test for Showing Preventive Effect on Botrytis Disease of Cucumber (Botrytis cinerea)
Sand soil was packed in a plastic pot, and seeds of cucumber (variety: Sagami Hanjiro) were sowed therein and grown for 12 days in a greenhouse. Each of the invented compounds (2), (3), (7), (11), (12), (15), (16), (18), (19), (21), (23), (24) and (27) and the comparative compound (A) was formulated into flowable formulation in accordance with Formulation Example 6, and it was diluted with water to a given concentration (13 ppm) and was sprayed onto the foliage of the cucumber so that a sufficient amount of the compound would be applied to the surface of leaves of the cucumber. After spraying, the plant was air-dried and PDA medium containing spores of Botrytis cinerea was placed on the surface of leaves of the cucumber. After the inoculation, the plant was left at 12° C. for 5 days under high humidity, and then the area of lesions was examined. As a result, the lesion area on the plant treated with the invented compounds (2), (3), (7), (11), (12), (15), (16), (18), (19), (21), (23), (24) and (27) was less than 30% of the lesion area on the untreated plant. […]

For `C=CCCOc1cccc(CNC(=O)c2ccc3ncccc3c2)c1F` [(2)], the “lesion area on the treated plant as % of the lesion area on the untreated plant” value in the experiment on Sclerotinia sclerotiorum is “less than 10%”. For `CC(C)=CCOc1cccc(CNC(=O)c2ccc3ncccc3c2)c1` [comparative compound (A), N-[3-(3-methyl-2-butenyloxy)phenyl]methyl-quinoline-6-carboxamide], the “lesion area on the treated plant as % of the lesion area on the untreated plant” value in the experiment with Botrytis cinerea is reported as 98%.
